Reference: US9121067B2, “Predictive marker for EGFR inhibitor treatment” (Hoffmann-La Roche Inc., priority 2007, dated 2015)

Experiments:
[1] = test system: patients with advanced NSCLC following failure of at least one prior chemotherapy regimen; assay: open-label Phase II predictive marker study, response assessment by RECIST; format: in vivo, human
Experimental: Based on the experience from the BR.21 study, benefiting population was defined as either having objective response, or disease stabilization for 12 weeks. Clinical and microarray datasets were analyzed according to a pre-defined statistical plan.
This was an open-label, predictive marker identification Phase II study. The study was conducted in approximately 26 sites in about 12 countries. 264 patients with advanced NSCLC following failure of at least one prior chemotherapy regimen were enrolled over a 12 month period. […] Dose reductions were permitted based on tolerability to drug therapy. Clinical and laboratory parameters were assessed to evaluate disease control and toxicity. Treatment continued until disease progression, unacceptable toxicity or death. The study design is depicted in FIG. 1.
The RECIST (Uni-dimensional Tumour Measurement) criteria were used to evaluate response.
To be assigned a status of CR or PR, changes in tumour measurements must be confirmed by repeated assessments at least 4 weeks apart at any time during the treatment period.
In the case of SD, follow-up measurements must have met the SD criteria at least once after study entry at a minimum interval of 6 weeks.
In the case of maintained SD, follow-up measurements must have met the SD criteria at least once after study entry with maintenance duration of at least 12 weeks.

[2] = test system: NSCLC patients for whom standard therapy for advanced disease has failed; conditions: single agent versus placebo; cited from earlier work
[3] = patients with cancer receiving 150 mg/day; 500 ng/ml is the average plasma concentration targeted for clinical efficacy; cited from earlier work
[4] = 75 patients with qRT-PCR results
[5] = n = 102, benefit = objective response or disease stabilization for >=12 weeks
[6] = patients included in microarray analysis n = 102, oral 150 mg/day

SMILES: C#Cc1cccc(Nc2ncnc3cc(OCCOC)c(OCCOC)cc23)c1 [Tarceva, erlotinib]
- patients with PD [1, 4]: 52%
- patients with SD [1, 4]: 31%
- patients with partial response (PR) [1, 4]: 5%
- Clinical Benefit NO, n (%) [1, 5]: 81 (79.4%)
- Clinical Benefit YES, n (%) [1, 5]: 21 (20.6%)
- Best Response PD, n (%) [1, 6]: 49 (48.0%)
- Best Response PR, n (%) [1, 6]: 6 (5.9%)
- Best Response SD, n (%) [1, 6]: 31 (30.4%)
- survival [2]: significantly prolongs and improves the survival
- drug levels in plasma [3]: > 500 ng/mL
